Here are results for eight compounds from ChEMBL document CHEMBL4706522, “Automated design and optimization of multitarget schizophrenia drug candidates by deep learning” (Eur J Med Chem, 2020).

The target of data set [1] is 5-hydroxytryptamine receptor 2A (Homo sapiens, UniProt P28223). Briefly: Antagonist activity at 5-HT2A receptor (unknown origin) assessed as decrease in intracellular calcium flux preincubated with calcium followed by compound challenge and measured after 10 mins by FLIPR method. The class given is functional, cell-based. In general terms: A change in cytosolic calcium serves as a functional read-out for many receptors and channels.

Data set [2] concerns the target T1, 5-hydroxytryptamine receptor 1A (Homo sapiens, UniProt P08908).
T1 sequence (P08908 whole entry): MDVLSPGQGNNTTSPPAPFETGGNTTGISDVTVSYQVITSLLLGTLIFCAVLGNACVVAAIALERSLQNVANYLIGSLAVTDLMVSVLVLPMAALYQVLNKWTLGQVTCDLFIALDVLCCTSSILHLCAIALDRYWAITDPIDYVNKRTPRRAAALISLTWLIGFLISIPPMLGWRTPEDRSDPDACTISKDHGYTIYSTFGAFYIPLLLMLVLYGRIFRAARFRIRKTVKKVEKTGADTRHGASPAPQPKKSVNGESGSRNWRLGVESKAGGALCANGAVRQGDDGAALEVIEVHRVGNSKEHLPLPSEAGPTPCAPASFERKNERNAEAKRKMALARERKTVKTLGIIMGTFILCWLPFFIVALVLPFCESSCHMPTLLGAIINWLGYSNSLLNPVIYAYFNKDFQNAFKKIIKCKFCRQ
The data set is described as follows: Agonist activity at 5-HT1A receptor (unknown origin) preincubated for 60 mins followed by addition of Eu-cAMP and measured after 60 mins by plate reader method. The class given is functional.

The target of another data set is D(2) dopamine receptor (Homo sapiens, UniProt P14416). The data set is described as follows: Antagonist activity at D2 receptor (unknown origin) preincubated for 60 mins followed by addition of Eu-cAMP and measured after 60 mins by plate reader method. The class given is functional.
The subject of a further data set is Mus musculus. The data set is described as follows: Antipsychotic activity in ICR mouse assessed as reduction of PCP induced hyperactivity at 3 mg/kg, ig pretreated with compound for 30 mins followed by PCP challenge for 10 mins and measured after 60 mins. The class given is functional. The following applies: po, 1.667 h, time 100 min.
The nature of data set [3]: Toxicity in ICR mouse assessed as induction of catalepsy at 1 mg/kg, po. The class given is organism-based. Conditions: in vivo.
A short description of data set [4]: Toxicity in ICR mouse assessed as induction of sedation by measuring spontaneous locomotor activity at 0.3 to 3 mg/kg, po measured for 30 mins following drug administration. The class given is organism-based. The following applies: in vivo, 0.5 h, dose 0.3-3 mg/kg.

D(2) dopamine receptor, sequence (P14416 whole entry): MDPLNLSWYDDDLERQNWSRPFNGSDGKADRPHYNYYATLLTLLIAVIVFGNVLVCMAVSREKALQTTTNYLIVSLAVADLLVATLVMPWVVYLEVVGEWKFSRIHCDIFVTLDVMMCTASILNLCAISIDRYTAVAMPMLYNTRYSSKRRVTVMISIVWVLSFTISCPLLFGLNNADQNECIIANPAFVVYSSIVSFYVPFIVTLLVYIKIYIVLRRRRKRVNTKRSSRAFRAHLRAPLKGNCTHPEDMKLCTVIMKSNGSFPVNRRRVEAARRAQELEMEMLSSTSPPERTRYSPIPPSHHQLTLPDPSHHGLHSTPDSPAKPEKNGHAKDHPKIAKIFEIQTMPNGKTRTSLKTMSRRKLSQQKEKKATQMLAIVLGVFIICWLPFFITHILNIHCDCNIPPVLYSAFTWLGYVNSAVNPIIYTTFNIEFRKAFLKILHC
5-hydroxytryptamine receptor 2A, sequence (P28223 whole entry): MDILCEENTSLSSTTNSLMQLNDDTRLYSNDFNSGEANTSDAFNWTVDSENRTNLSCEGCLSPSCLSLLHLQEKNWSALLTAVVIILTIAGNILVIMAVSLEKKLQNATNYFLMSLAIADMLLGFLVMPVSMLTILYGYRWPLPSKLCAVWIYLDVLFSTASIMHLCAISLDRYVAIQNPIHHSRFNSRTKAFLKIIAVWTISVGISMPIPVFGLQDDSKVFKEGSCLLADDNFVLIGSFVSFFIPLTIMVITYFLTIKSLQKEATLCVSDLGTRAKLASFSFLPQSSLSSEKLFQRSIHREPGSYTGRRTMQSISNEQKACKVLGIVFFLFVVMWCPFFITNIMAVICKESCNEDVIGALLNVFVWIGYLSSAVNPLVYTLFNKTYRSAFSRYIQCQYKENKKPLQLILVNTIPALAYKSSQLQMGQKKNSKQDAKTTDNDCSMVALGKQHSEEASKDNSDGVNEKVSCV

For `O=C1NCC(=O)N(CCCCN2CCN(c3cccc4sccc34)CC2)c2cc(F)ccc21`, the results for the IC50 (in data set [1] (read-out: pIC50 (converted)); at D(2) dopamine receptor) were 0.0245 µM and 0.0347 µM, respectively. In data set [2] (read-out: pEC50 (converted)), the EC50 is 0.00407 µM. Further, the inhibition in vivo (commonly the drop in the measured response relative to a control, in per cent) at 3 mg/kg in the data set on Mus musculus came out at 43%.

For `O=c1[nH]c(=O)n(CCCCN2CCN(c3cccc4sccc34)CC2)c2ccccc12`, the Activity entry in data set [3] and in data set [4] was “Non-Toxic” throughout. The IC50 in data set [1] (read-out: pIC50 (converted)) is 0.129 µM. The EC50 in data set [2] (read-out: pEC50 (converted)) is 0.00339 µM.

As for `O=C1CCc2ccc(OCCCCN3CCN(c4cccc(Cl)c4Cl)CC3)cc2N1` [ARIPIPRAZOLE], in the data set with Mus musculus, the inhibition in vivo at 3 mg/kg came out at 54%.

For `O=S1(=O)CCc2ccc(O)cc2N1CCCCN1CCN(c2cccc3sccc23)CC1`, the IC50 is 0.0186 µM in data set [1] (read-out: pIC50 (converted)) and 0.02 µM against D(2) dopamine receptor. The EC50 in data set [2] (read-out: pEC50 (converted)) was 0.00112 µM. Further, in the data set on Mus musculus, the inhibition in vivo at 3 mg/kg came out at 13%.

With `CN1CC(=O)N(CCCCN2CCN(c3cccc4sccc34)CC2)c2ccccc2C1=O`, the IC50 in data set [1] (read-out: pIC50 (converted)) was 0.0427 µM; against D(2) dopamine receptor, 0.123 µM. In data set [2] (read-out: pEC50 (converted)), the EC50 is 0.011 µM. The inhibition in vivo at 3 mg/kg with Mus musculus is 15%.

Turning to `O=C1COc2ccccc2N1CCCCN1CCN(c2cccc3sccc23)CC1`, the IC50 in data set [1] (read-out: IC50) is 0.00164 µM. For the same compound, the EC50 in data set [2] (read-out: EC50) worked out at 0.00051 µM. The inhibition in vivo at 3 mg/kg in the data set with Mus musculus turned out to be 39%.

On to `COc1ccc2ncc(=O)n(CCCCN3CCN(c4cccc5sccc45)CC3)c2c1`, for which the IC50 in data set [1] (read-out: pIC50 (converted)) was 0.0209 µM. Besides, the EC50 in data set [2] (read-out: pEC50 (converted)) was 0.00269 µM.

For the compound `Nc1ccc2c(c1)N(CCCCN1CCN(c3cccc4sccc34)CC1)S(=O)(=O)CC2`, the figures for the IC50 (in data set [1] (read-out: pIC50 (converted)); on D(2) dopamine receptor) were 0.00282 µM and 0.0676 µM, respectively. Moreover, in data set [2] (read-out: pEC50 (converted)), the EC50 is 0.000794 µM. Besides, the inhibition in vivo at 3 mg/kg in the data set on Mus musculus worked out at 48%.
